Measured values as given in patent publication US20240116985A1, “STAPLED PEPTIDES AND METHODS THEREOF” (priority 2020, published 2024).
pIC50: −log10 of the molar value. Converted amounts (≈) assume the structure as drawn. Like-named read-outs stand apart in the source and are kept apart here.

Assays:
[1] = target: T1, full-length beta-Catenin (Uniprot ID P35222) (Homo sapiens, UniProt P35222); experiment: Fluorescence polarization IC50 (beta-catenin / 5FAM-TCF4 10-53 competition); assay type: binding; conditions: fluorescence polarization
T1 construct: 10 nM full-length beta-Catenin (Uniprot ID P35222)
T1 sequence (P35222 1-781): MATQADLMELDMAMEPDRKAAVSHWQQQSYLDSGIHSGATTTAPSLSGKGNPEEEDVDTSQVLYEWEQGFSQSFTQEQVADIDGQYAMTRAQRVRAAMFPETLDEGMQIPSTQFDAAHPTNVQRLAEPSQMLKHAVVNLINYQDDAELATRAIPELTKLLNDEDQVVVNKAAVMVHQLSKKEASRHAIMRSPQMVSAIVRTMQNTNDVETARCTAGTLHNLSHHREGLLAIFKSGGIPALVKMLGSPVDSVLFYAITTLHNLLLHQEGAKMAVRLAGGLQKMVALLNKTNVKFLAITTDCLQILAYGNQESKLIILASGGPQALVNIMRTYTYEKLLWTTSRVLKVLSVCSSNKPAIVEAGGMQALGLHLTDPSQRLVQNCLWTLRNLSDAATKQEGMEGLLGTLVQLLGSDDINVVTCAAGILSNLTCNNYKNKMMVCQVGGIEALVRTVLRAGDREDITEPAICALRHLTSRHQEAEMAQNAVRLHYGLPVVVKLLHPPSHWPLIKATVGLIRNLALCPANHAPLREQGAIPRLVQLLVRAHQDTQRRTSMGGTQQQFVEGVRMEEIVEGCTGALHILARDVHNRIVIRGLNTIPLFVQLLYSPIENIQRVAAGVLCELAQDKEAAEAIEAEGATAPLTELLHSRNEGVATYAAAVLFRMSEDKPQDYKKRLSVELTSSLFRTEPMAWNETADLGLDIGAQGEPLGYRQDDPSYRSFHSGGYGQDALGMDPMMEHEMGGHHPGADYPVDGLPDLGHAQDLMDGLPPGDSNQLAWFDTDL

Solubility in PBS = assay type: physicochemical
Method in brief: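 Read-out is the HPLC peak area of the supernatant from ultracentrifuged PBS solution, scaled against a 50 μM peptide DMSO injection; value reported as [(PBS area)/(DMSO area)]*50 uM.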

Row | SMILES | pIC50 ([1]; read-out: beta-Catenin FP IC50) | Solubility (Solubility in PBS; Solubility (uM)) | Solubility (Solubility in PBS) | pIC50 ([1]; beta-catenin, read-out: FP EC50)
1 | CCCCCCCC(=O)N1CCC[C@]12CC=CCCCC1(CCCC=CCCCOC(=O)N3CC[C@@](C(=O)N[C@@H](Cc4ccccc4Cl)C(=O)N[C@@H](Cc4csc5ccccc45)C(=O)N[C@@H](C(N)=O)[C@H](C)O)(C3)NC(=O)[C@H](CC(N)=O)NC(=O)[C@H](Cc3ccccc3)NC(=O)[C@H](C)NC(=O)[C@H](C)NC(=O)[C@H](CC(=O)O)NC(=O)[C@H](CC(=O)O)NC1=O)NC(=O)[C@H](CC(C)(C)C)NC(=O)[C@H](CC(=O)O)NC2=O (stereo partly drawn) [I-1252, Oct-PL3-Asp-Npg-B5-Asp-Asp-Ala-Ala-Phe-Asn-PyrS2-2C1F-BztA-dThr-NH2] | 6.26 | 44 µM (≈ 88.2 µg/mL) | – | –
2 | CC(=O)N1CCC[C@]12CC=CCCCC1(CCCC=CCCCCCCCC[C@@](C)(C(=O)N[C@@H](Cc3ccccc3Cl)C(=O)N[C@@H](Cc3csc4ccccc34)C(=O)N[C@H](C(N)=O)[C@@H](C)O)NC(=O)[C@H]([C@@H](C)O)NC(=O)[C@H](Cc3ccccc3)NC(=O)[C@H](C)NC(=O)[C@H](C)NC(=O)[C@H](CC(=O)O)NC(=O)[C@H](CC(=O)O)NC1=O)NC(=O)[C@H](CC(C)(C)C)NC(=O)[C@H](CC(=O)O)NC2=O (stereo partly drawn) [I-1262, Ac-PL3-Asp-Npg-B5-Asp-Asp-Ala-Ala-Phe-Thr-S10-2C1F-BztA-Thr-NH2] | 5.95 | 49 µM (≈ 92.7 µg/mL) | – | –
3 | CC(=O)N1CCC[C@]12CC=CCCCC1(CCCC=CCCCOC(=O)N3CC[C@@](C(=O)N[C@@H](Cc4ccc5ccccc5c4)C(=O)N[C@@H](Cc4csc5ccccc45)C(=O)N[C@@H](CO)C(N)=O)(C3)NC(=O)[C@H]([C@@H](C)O)NC(=O)[C@H](Cc3ccccc3)NC(=O)[C@H](C)NC(=O)[C@H](C)NC(=O)[C@H]([C@@H](C)O)NC(=O)[C@H](CC(=O)O)NC1=O)NC(=O)[C@H](CC(C)(C)C)NC(=O)[C@H](CC(=O)O)NC2=O (stereo partly drawn) [I-1270, Ac-PL3-Asp-Npg-B5-Asp-Thr-Ala-Ala-Phe-Thr-PyrS2-2NapA-BztA-Ser-NH2] | 5.43 | – | 10 µM (≈ 18.9 µg/mL) | –

More lines, now with the values ahead:

Row | pIC50 ([1]; read-out: beta-Catenin FP IC50) | Solubility (Solubility in PBS; Solubility (uM)) | Solubility (Solubility in PBS) | pIC50 ([1]; beta-catenin, read-out: FP EC50) | SMILES
4 | 6.17 | – | 10 µM (≈ 19.1 µg/mL) | – | CC(=O)N1CCC[C@]12CC=CCCCC1(CCCC=CCCCOC(=O)N3CC[C@@](C(=O)N[C@@H](Cc4cccc(C(F)(F)F)c4)C(=O)N[C@@H](Cc4csc5ccccc45)C(=O)N[C@@H](CO)C(N)=O)(C3)NC(=O)[C@H]([C@@H](C)O)NC(=O)[C@H](Cc3ccccc3)NC(=O)[C@H](C)NC(=O)[C@H](C)NC(=O)[C@H]([C@@H](C)O)NC(=O)[C@H](CC(=O)O)NC1=O)NC(=O)[C@H](CC(C)(C)C)NC(=O)[C@H](CC(=O)O)NC2=O (stereo partly drawn) [I-1271, Ac-PL3-Asp-Npg-B5-Asp-Thr-Ala-Ala-Phe-Thr-PyrS2-3F3MeF-BztA-Ser-NH2]
5 | 6.48 | 21 µM (≈ 38.6 µg/mL) | – | – | CC(=O)N1CCC[C@]12CC=CCCCC1(CCCC=CCCCOC(=O)N3CC[C@@](C(=O)N[C@@H](Cc4ccccc4)C(=O)N[C@@H](Cc4cccc5ccccc45)C(=O)N[C@@H](CO)C(N)=O)(C3)NC(=O)[C@H]([C@@H](C)O)NC(=O)[C@H](Cc3ccccc3)NC(=O)[C@H](C)NC(=O)[C@H](C)NC(=O)[C@H]([C@@H](C)O)NC(=O)[C@H](CC(=O)O)NC1=O)NC(=O)[C@H](CC(C)(C)C)NC(=O)[C@H](CC(=O)O)NC2=O (stereo partly drawn) [I-1272, Ac-PL3-Asp-Npg-B5-Asp-Thr-Ala-Ala-Phe-Thr-PyrS2-Phe-1NapA-Ser-NH2]
6 | 5.93 | – | 10 µM (≈ 20 µg/mL) | 5.93 | CC(=O)N1CCC[C@]12CC=CCCCC1(CCCC=CCCCOC(=O)N3CC[C@@](C(=O)N[C@@H](Cc4ccccc4)C(=O)N[C@@H](Cc4csc5ccccc45)C(=O)N[C@@H](CCC(N)=O)C(N)=O)(C3)NC(=O)[C@H](CC(C)C)NC(=O)[C@H](Cc3ccccc3)NC(=O)[C@H](C)NC(=O)[C@H](CCCCNC(C)C)NC(=O)[C@H]([C@@H](C)O)NC(=O)[C@H](CC(=O)O)NC1=O)NC(=O)[C@H](CC(C)(C)C)NC(=O)[C@H](CC(N)=O)NC2=O (stereo partly drawn) [I-1288, Ac-PL3-Asn-Npg-B5-Asp-Thr-iPrLys-Ala-Phe-Leu-PyrS2-Phe-BztA-Gln-NH2]
